# Legend:
# [1] = system: peritoneal carcinomatosis; test: Instillation of chemotherapy directly into the abdomen with low energy ultrasound in a patient with peritoneal carcinomatosis (Examples III, IV); assay type: in vivo; conditions: with ultrasound at less than 100 kHz and less than 50 W; intraperitoneal instillation
# Description: The chosen drug is dissolved in 100 ml of normal saline, injected into the catheter and followed by another 100 ml of normal saline for flushing. The patient's position is shifted every few minutes for an hour to disperse the drug. […] The chosen drug is bleomycin (15 units), 5-fluorouracil(1000 mg), thiotepa (45 mg) Adriamycin (30 mg) cisplatin, or a-IFN.
# The procedure set forth in Example III is repeated with the chosen drug administered with microbubbles and the interval of repeated doses is further increased.
# [2] = system: hepatic metastases; conditions: human, in vivo
Compound,interval of repeated doses [1],drug toxicity [2]
N.N.[Cl][Pt][Cl] [cisplatin],increases the interval of repeated doses,
bleomycin,increases the interval of repeated doses,
O=c1[nH]cc(F)c(=O)[nH]1 [fluorouracil],increases the interval of repeated doses,less drug toxicity
S=P(N1CC1)(N1CC1)N1CC1 [thiotepa],increases the interval of repeated doses,
"COc1cccc2c1C(=O)c1c(O)c3c(c(O)c1C2=O)C[C@@](O)(C(=O)CO)C[C@@H]3O[C@H]1C[C@H](N)[C@H](O)[C@H](C)O1 [Adriamycin, Doxorubicin]",increases the interval of repeated doses,less drug toxicity
O=c1[nH]c(=O)n([C@H]2C[C@H](O)[C@@H](CO)O2)cc1F [flexuridine],,less drug toxicity
